Data taken from patent US10588952B2, “Conjugate vaccine using trimming function of ERAP1” (SUMITOMO DAINIPPON PHARMA CO., LTD., priority 2013, dated 2020).
Converted amounts (≈) assume the structure as drawn. Bridge positions count the residues as written; N and C are the ends. Peptide text beside a SMILES is read from it. I, II: the chains in the order shown.

Assays:
[1] = system: HLA-A0201 transgenic mouse; experiment: In vivo CTL induction ability, IFNγ ELISPOT, formula (11) (Experimental Example 13); settings: 250 μg/site with IFA, 17 hr
Method: The compound represented by the formula (11) synthesized in Example 109 was evaluated for the CTL induction ability by an in vivo CTL induction test using an HLA-A0201 transgenic mouse. The compound represented by the formula (11): […]
To evaluate whether CTLs to each of the peptides (SEQ ID NOs: 19 and 88) endogenously presented by cancer cells was induced, the compound represented by the formula (11) was administered to the HLA-A0201 transgenic mouse. That is, it was determined whether IFNγ production was observed by re-stimulation, with the peptide (SEQ ID NO: 19 or 88), of the splenocyte derived from the above-mentioned mouse administered with the compound represented by the formula (11).
Specifically, the compound represented by the formula (11) was dissolved in dimethyl sulfoxide (DMSO) at 80 mg/mL, further diluted with water for injection to 10 mg/mL, and emulsified by mixing with an equal amount of incomplete Freund's adjuvant (IFA). The emulsified compound was intradermally administered to 2 sites at the base of tail of the mouse at 250 μg/site. One week later, the mouse was euthanized with CO2 gas, the spleen was isolated, and splenocytes were prepared. IFNγ ELISPOT assay kit was used for the measurement of IFNγ production. […] The number of spots that developed color was measured by ImmunoSpot Analyzer (manufactured by C.T.L.). […]

[2] = system: HLA-A0201 transgenic mouse; experiment: In vivo CTL induction ability, IFNγ ELISPOT, formula (5) (Experimental Example 14); settings: 250 μg/site with IFA, 17 hr
Method: The compound represented by the formula (5) synthesized in Example 110 was evaluated for the CTL induction ability by an in vivo CTL induction test using HLA-A0201 transgenic mouse. The compound represented by the formula (5): […]
Specifically, the compound represented by the formula (5) was dissolved in dimethyl sulfoxide (DMSO) at 80 mg/mL, further diluted with water for injection to 10 mg/mL, and emulsified by mixing with an equal amount of incomplete Freund's adjuvant (IFA). The emulsified compound was intradermally administered to 2 sites at the base of tail of the mouse at 250 μg/site. One week later, the mouse was euthanized with CO2 gas, the spleen was isolated, and splenocytes were prepared. IFNγ ELISPOT assay kit was used for the measurement of IFNγ production. On the previous day of splenocyte preparation, an ELISPOT plate was treated with an anti-mouse IFNγ antibody, and blocked with RPMI1640 medium containing 10% FBS the next day. The prepared HLA-A0201 transgenic mouse-derived splenocytes were plated at 0.25×10^6 cells/well on the blocked ELISPOT plate. […] After the culture, the supernatant was removed, and the ELISPOT plate was allowed to develop color according to the attached protocol. The number of spots that developed color was measured by ImmunoSpot Analyzer (manufactured by C.T.L.).

[3] = system: HLA-A0201 transgenic mouse; experiment: In vivo CTL induction ability, IFNγ ELISPOT, Cys-extended peptides (Experimental Example 3); settings: intradermal, 2 sites, 50 μg/site with IFA; splenocytes one week later re-stimulated with Cys non-extended or Cys-extended peptide 10 μg/mL
Method: The CTL induction ability of each peptide extended by cysteine (Cys) (Cys-extended peptide) shown in Table 23 was evaluated by in vivo CTL induction test using an HLA-A0201 transgenic mouse.
HLA-A0201 transgenic mouse (C57BL/6CrHLA-A2.1DR1) is a mouse which is defective in mouse MHC, and expresses a chimera HLA of human MHC HLA-A0201 and mouse MHC H-2D^b, and HLA-DRB1*0101.
The emulsified peptide was intradermally administered to 2 sites at the base of tail of the mouse at 50 μg/site. One week later, the mouse was euthanized with CO2 gas, the spleen was isolated, and splenocytes were prepared. IFNγ ELISPOT assay kit was used for the measurement of IFNγ production. On the previous day of splenocyte preparation, an ELISPOT plate was treated with an anti-mouse IFNγ antibody, and blocked with RPMI1640 medium containing 10% FBS the next day. The prepared HLA-A0201 transgenic mouse-derived splenocytes were plated at 2.5×10^5 cells/well on the blocked ELISPOT plate. […] These splenocytes were cultivated for 20 hr at 37° C., 5% CO2, whereby peptide re-stimulation in vitro was performed. Thereafter, the supernatant was removed, and the ELISPOT plate was allowed to develop color according to the attached protocol. The number of spots that developed color was measured by KS ELISPOT.

ERAP1 [4] = target: T1, ERAP1 (Homo sapiens, UniProt Q9NZ08); experiment: Time-course changes of trimming of N-terminal amino acid by ERAP1 (Experimental Example 2); format: biochemical; settings: peptide obtained by trimming (SEQ ID NO: 53, 43 or 19), ERAP1 solution 0.5 mg/ml, room temperature
T1 sequence (Q9NZ08 whole entry): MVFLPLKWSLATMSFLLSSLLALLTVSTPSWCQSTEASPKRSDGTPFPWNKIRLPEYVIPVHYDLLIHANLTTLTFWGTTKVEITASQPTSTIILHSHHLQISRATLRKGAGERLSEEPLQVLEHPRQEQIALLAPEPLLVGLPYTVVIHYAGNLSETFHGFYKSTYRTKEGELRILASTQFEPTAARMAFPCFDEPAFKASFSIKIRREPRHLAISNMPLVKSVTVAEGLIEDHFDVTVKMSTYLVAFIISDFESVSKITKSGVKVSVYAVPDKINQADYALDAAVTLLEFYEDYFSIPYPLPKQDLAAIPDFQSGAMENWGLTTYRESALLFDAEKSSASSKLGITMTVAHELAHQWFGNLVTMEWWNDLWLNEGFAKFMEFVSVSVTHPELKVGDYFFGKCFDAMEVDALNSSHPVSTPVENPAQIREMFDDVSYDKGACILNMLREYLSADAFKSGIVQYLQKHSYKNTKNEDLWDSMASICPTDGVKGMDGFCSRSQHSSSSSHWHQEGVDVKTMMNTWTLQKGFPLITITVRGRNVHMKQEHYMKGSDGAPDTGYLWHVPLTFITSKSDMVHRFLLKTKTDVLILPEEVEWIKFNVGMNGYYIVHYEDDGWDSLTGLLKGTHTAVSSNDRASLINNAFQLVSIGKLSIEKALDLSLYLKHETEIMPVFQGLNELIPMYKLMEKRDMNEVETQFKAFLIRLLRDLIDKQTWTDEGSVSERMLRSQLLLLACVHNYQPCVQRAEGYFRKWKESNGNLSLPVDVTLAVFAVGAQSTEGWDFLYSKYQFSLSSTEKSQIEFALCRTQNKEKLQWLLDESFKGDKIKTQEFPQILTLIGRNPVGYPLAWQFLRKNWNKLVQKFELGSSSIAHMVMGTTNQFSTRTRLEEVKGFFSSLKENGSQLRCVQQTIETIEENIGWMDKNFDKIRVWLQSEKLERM
Method: 20 μl of ERAP1 solution (0.5 mg/ml) in Tris.HCl buffer was added to 172 μl of Tris.HCl buffer. 10 mM peptide solution in DMSO (8.0 μl) was added to the aforementioned ERAP1 solution, and the mixture was blended well and stood at room temperature. […]
pump: UFLC manufactured by Shimadzu column: Shim-pack XR-ODS 3.0 mmi.d.×75 mm solution: 0.05% TFA H2O(A)-0.05% TFA CH3CN(B) […]
detection wavelength: λ=220 nm gradient: Concentration of SOLUTION B was raised from 1.0% 70% from 0.0 min to 5.0 min […]
The peptide to be obtained by the trimming of the N-terminal amino acid(s) by ERAP1 is, […]

ERAP1 [5] = target: T1, ERAP1; experiment: Test of trimming of N-terminal amino acid by ERAP1 (Experimental Example 11, Examples 50, 56, 64, 67); format: biochemical; settings: Proteinase-3 169-177 peptide obtained by ERAP1 trimming; from HPLC AUC
Method: The peptides synthesized in Examples 50, 56, 64 and 67 were evaluated for N-terminal amino acid trimming efficiency using ERAP1. 50 μl of ERAP1 solution (10 μg/ml) in pH 8.0, 20 mM Tris.HCl-100 mM NaCl buffer (Tris.HCl buffer) was added to 142 μl of Tris.HCl buffer. 10 mM peptide solution in DMSO (2.0 μl) and 6.0 μL of DMSO were added to the aforementioned ERAP1 solution, and the mixture was blended well and stood at 30° C. […] The peptide to be obtained by trimming was chemically synthesized separately, and analyzed under similar conditions in the absence of the enzyme. […]
pump: UFLC manufactured by Shimadzu […]
solution: 0.1% TFA H2O(A)-0.1% TFA CH3CN(B) […]
detection wavelength: λ=220 nm gradient: concentration of SOLUTION B was raised from 10% to 50% from 0.0 min to 8.5 min

[6] = splenocytes pulsed with SEQ ID NO: 19, 10 μg/mL

Method for physchem: To prepare a test solution, about 1 mg of a test product was measured and the isotonic buffer (0.5 mL) was added thereto. The prepared solution was shaken at room temperature for 90 min (shaking conditions: RECIPRO SHAKER SR-1N manufactured by TAITEC, Speed=8), centrifuged (15000 rpm, 5 min, room temperature), and the supernatant after centrifugation was used as a test solution.
About 1 mg of the test product was accurately measured, dissolved in 0.1% TFA water/acetonitrile=1/1, made the total amount 10 mL, and this was used as a standard solution of the test product.
The standard solution of the test product and the test solution are analyzed by HPLC (under the analysis conditions described in Table 34), and the solubility of the test product is calculated from the ratio of peak area compared to the standard solution.
column: Chemcopack Quicksorb (4.6 mmφ×150 mm, 5 μm)
manufactured by Chemco Scientific Co., Ltd.
mobile phase: SOLUTION A; 0.1% TFA water, SOLUTION B;
0.1% TFA acetonitrile solution
column temperature: room temperature
detection wavelength: UV 254 nm, 230 nm (2 wavelength detection)
sample injection volume: 10

CC[C@H](C)[C@H](NC(=O)[C@H](Cc1c[nH]c2ccccc12)NC(=O)[C@H](CCSC)NC(=O)[C@H](CC(C)C)NC(=O)[C@H](CC(C)C)NC(=O)[C@@H](N)CO)C(=O)N[C@H](C(=O)N[C@@H](CCC(N)=O)C(=O)N[C@@H](CSSC[C@H](N)C(=O)NCC(=O)N[C@@H](CC(C)C)C(=O)N[C@@H](Cc1ccc(O)cc1)C(=O)N[C@@H](CC(=O)O)C(=O)NCC(=O)N[C@@H](CCSC)C(=O)N[C@@H](CCC(=O)O)C(=O)N[C@@H](Cc1c[nH]cn1)C(=O)N[C@@H](CC(C)C)C(=O)O)C(=O)O)[C@@H](C)O [Example 109]
induction of CTLs specific to the peptide shown by SEQ ID NO: 19 [1, 6]: can induce CTLs
induction of CTLs specific to the peptide shown by SEQ ID NO: 88 ([1]; splenocytes pulsed with SEQ ID NO: 88, 10 μg/mL): can induce CTLs
solubility at 90 min (physchem; pH 6): 79 µg/mL (≈ 35.4 µM)
solubility at 90 min (physchem; pH 7.4): 700 µg/mL (≈ 314 µM)

CSCC[C@H](NC(=O)CNC(=O)[C@H](CC(=O)O)NC(=O)[C@H](Cc1ccc(O)cc1)NC(=O)[C@H](CC(C)C)NC(=O)CNC(=O)[C@@H](N)CSSC[C@H](N)C(=O)N[C@H](C(=O)N[C@@H](CC(C)C)C(=O)N[C@@H](CCC(N)=O)C(=O)N[C@@H](CCC(=O)O)C(=O)N[C@@H](CC(C)C)C(=O)N[C@@H](CC(N)=O)C(=O)N[C@H](C(=O)N[C@H](C(=O)N[C@H](C(=O)O)C(C)C)[C@@H](C)O)C(C)C)C(C)C)C(=O)N[C@@H](CCC(=O)O)C(=O)N[C@@H](Cc1c[nH]cn1)C(=O)N[C@@H](CC(C)C)C(=O)O [Example 110] (I: H-CGLYDGMEHL-OH / II: H-CVLQELNVTV-OH; disulfide I:1-II:1)
induction of CTLs specific to the peptide shown by SEQ ID NO: 19 [2, 6]: can induce CTLs
induction of CTLs specific to the peptide shown by SEQ ID NO: 43 ([2]; splenocytes pulsed with SEQ ID NO: 43, 10 μg/mL): can induce CTLs
solubility thermodynamic at 90 min (physchem; pH 6): 511 µg/mL (≈ 227 µM)
solubility thermodynamic at 90 min (physchem; pH 7.4): > 1000 µg/mL

H-CGLYDGMEHL-OH [Example 25]
in vivo CTL induction ability (IFNγ ELISPOT) [3]: has an in vivo CTL induction ability
formation rate(%) 1 hr later (ERAP1 [4]): 95.1%
formation rate(%) 2 hr later (ERAP1 [4]): 106%
formation rate(%) 4 hr later (ERAP1 [4]): 100%
formation rate(%) 8 hr later (ERAP1 [4]): 101%

H-CVLQELNVTV-OH [Example 21]
in vivo CTL induction ability (IFNγ ELISPOT) [3]: has an in vivo CTL induction ability
formation rate(%) 1 hr later (ERAP1 [4]): 83.4%
formation rate(%) 2 hr later (ERAP1 [4]): 85.6%
formation rate(%) 4 hr later (ERAP1 [4]): 78.8%
formation rate(%) 8 hr later (ERAP1 [4]): 83.9%

H-GCVLQELNVTV-OH [Example 56]
formation rate of VLQELNVTV (SEQ ID NO: 43) (ERAP1 [5]): 1.1%

H-SCVLQELNVTV-OH [Example 64]
formation rate of VLQELNVTV (SEQ ID NO: 43) (ERAP1 [5]): 1.3%

H-YCVLQELNVTV-OH [Example 67]
formation rate of VLQELNVTV (SEQ ID NO: 43) (ERAP1 [5]): 0.7%
